Test results published in PubChem BioAssay AID1671316.

Biological target: Tyrosine-protein kinase Lck (Homo sapiens) (UniProt P06239)
Assay: PubChem AID 1671316
Details: Z'-LYTE FRET kinase assay, recombinant LCK

Chain of Tyrosine-protein kinase Lck (Homo sapiens) (P06239 whole entry, looked up): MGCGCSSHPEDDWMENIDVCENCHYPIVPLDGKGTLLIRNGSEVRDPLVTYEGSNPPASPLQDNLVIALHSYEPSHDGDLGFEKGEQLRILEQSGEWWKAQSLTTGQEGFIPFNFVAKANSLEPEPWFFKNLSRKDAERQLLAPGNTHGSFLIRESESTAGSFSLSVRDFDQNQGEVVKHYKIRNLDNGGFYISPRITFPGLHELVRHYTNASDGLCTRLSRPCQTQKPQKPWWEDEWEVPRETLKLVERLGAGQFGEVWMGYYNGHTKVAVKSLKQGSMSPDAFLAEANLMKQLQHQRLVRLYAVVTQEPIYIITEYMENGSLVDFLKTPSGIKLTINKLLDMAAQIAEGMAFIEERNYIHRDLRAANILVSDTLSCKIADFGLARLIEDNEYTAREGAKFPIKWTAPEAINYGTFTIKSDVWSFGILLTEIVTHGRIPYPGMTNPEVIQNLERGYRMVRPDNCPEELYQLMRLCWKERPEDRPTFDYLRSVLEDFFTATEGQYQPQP

## COc1cc2ncnc(Nc3cccc(Cl)c3)c2cc1OC
  IC50: 799 nM
